Experimental data from patent US10471057B2, “Toxic RNA inhibitors self-assembled in situ” (THE SCRIPPS RESEARCH INSTITUTE, priority 2014, dated 2019).
“Also recorded” adds a separate entry of the source.

Assays:
r(CUG)109 = assay: In vitro reaction and pull down of small molecule dimers with RNA; format: biochemical; details: rCUG109, GC-based paired RNA and tRNA
Description: Then 30 μL of this slurry were added to each sample and incubated at room temperature for 1 h. Then the samples were centrifuged and the supernatant was transferred to a separate tube. The beads were then washed with 1×PBST and centrifuged. The supernatant was transferred to the tube containing the unbound RNA. The total radioactive counts of bound and unbound RNA were measured by scintillation counting.

r(CUG)exp [1] = assay: DM1 pre-mRNA splicing defects in patient derived fibroblasts; format: cell-based, human
Description: Bioactivity of small molecule dimers was assessed by using DM1 patient derived fibroblasts containing 500 CTG repeats (GM03987) and healthy fibroblasts (GM07492). Cells were grown as monolayers in 12 well plates in growth medium (1×EMEM (Lonza), 10% FBS, 1× glutagro (Corning), 1×MEM non-essential amino acids (Corning) and 1× antibiotic/antimycotic (Corning)). Once cells were ˜80% confluent, they were treated with growth medium containing the compound of interest (10, 1, 0.1 and 0.01 μM 2H-K4NMeS; 100, 10 and 1 nM 2H-K4NMeS-CA-Biotin; 1 μM N3-2H-K4NMeS; 500 nM N3-2H-K4NMeS+500 nM 2H-K4NMeS-Aminohexanoate; 1000, 10 and 0.1 nM N3-2H-K4NMeS-Aak; 250, 100, and 50 nM 2H-K4NMeS-Bleomycin A5). After 48 h the cells were lysed and the total RNA was harvested using a Zymo Quick RNA miniprep kit. An on-column DNA digestion was completed per the manufacturer's recommended protocol. Approximately 150 ng of total RNA was reverse transcribed at 50° C. using 100 units of SuperScript III reverse transcriptase (Life Technologies). Then 20% of the RT reaction was subjected to PCR using GoTaq DNA polymerase (Promega). RT-PCR products were observed after 25 cycles of 95° C. for 30 s, 58° C. for 30 s, 72° C. for 1 min and a final extension at 72° C. for 1 min. The products were separated on an 2% agarose gel ran at 100 V for 1 h in 1×TAE buffer. The products were visualized by staining with ethidium bromide and scanned using a Bio-Rad Gel Doc XR+ imaging system. The RT-PCR primers for the MBNL1 were […]

DMPK mRNA = details: 100 nM, 48 h, qRT-PCR of r(CUG)-containing mRNAs
Description: Target identification of small molecule dimers was assessed using DM1 patient derived fibroblasts containing 500 CTG repeats (GM03987) and healthy fibroblasts (GM07492). Cells were grown as monolayers in 100 mm^2 in growth medium (1×EMEM (Lonza), 10% FBS, 1× glutagro (Corning), 1×MEM non-essential amino acids (Corning) and 1× antibiotic/antimycotic (Corning)). Once cells were 80% confluent, they were treated with growth medium containing the compound of interest (100 nM 2H-K4NMeS-CA-Biotin). After 48 h the cells were lysed and the total RNA was harvested using Trizol reagent (Life Technologies). Approximately 10 of total RNA was incubated with streptavidin-agarose beads (100 Sigma) for 1 h at room temperature. Then the beads were washed with 1×PBS and the bound RNA was eluted by adding 100 μL of 95% formamide, 10 mM EDTA pH 8.2 for 10 min at 60° C. The bound RNA was cleaned up using a Zymo Quick RNA miniprep kit. Approximately 100 ng of RNA was used for RT qScript cDNA synthesis kit (Quanta BioSciences). 10% of the RT reaction was used for real time PCR (qPCR) with SYBR green master mix (Life Technologies) performed on a 7900HT Fast Real-Time PCR System (Applied Biosystems). Monitored rCUG-containing mRNAs DMPK (500 repeats), SUPT20HL1 (17 repeats), CASK (16 repeats), LRP8 (11 repeats), MAP3K4 (11 repeats), SCUBE (7 repeats) and SORCS2 (7 repeats). Quantified by ΔΔCt relative to GAPDH

[2] = tested on: luciferase reporter without CTG repeats; assay: Translational defect luciferase reporter assay, 0 CTG repeats; format: cell-based
Description: (§1) C2C12 cell lines expressing 800 or 0 CTG repeats in the 3′ UTR of luciferase were grown as monolayers in 96-well plates in growth medium (1×DMEM, 10% FBS, 1× glutagro, (Corning) andlX antibiotic/antimycotic (Corning))^[10]. Once the cells were 70% confluent, the click functionalized dimers were added in 100 μL of growth medium (1000 nM N3-2H-K4NMeS and 1000, 10 and 0.1 nM N3-2H-K4NMeS-Aak). Cells were treated with compound for 48 h and then the cell count was normalized using WST-1 reagent (Roche). Then cells were washed with 1×DPBS and lysed by treating with 50 μL of PPBT lysis buffer at room temperature for 10 minutes. Then 50 μL of luciferase substrate was added and luminescence was measured.

[3] = tested on: r(CUG) repeats in 3' UTR of luciferase; assay: Translational defect luciferase reporter assay, 800 CTG repeats; format: cell-based; details: cells with long, toxic r(CUG) repeats
Description: as §1

r(CUG)exp [4] = assay: Nuclear foci by FISH in DM1 patient derived fibroblasts; format: cell-based, human; details: 48 h
Description: FISH was utilized to determine the effects of small molecule dimers on the formation and disruption of nuclear foci. DM1 patient derived fibroblasts containing 500 CTG repeats (GM03987) were grown to ˜80% confluence in a Mat-Tek 96-well glass bottom plate in growth medium. Cells were treated with the compound of interest for 48 h in growth medium followed by FISH as previously described^6 using 1 ng/μL DY547-2′OMe-(CAG)6. Immunostaining of MBNL1 was completed as previously described^7 using the MB1a antibody (diluted 1:4), which was generously supplied by Prof. Glenn E. Morris (Wolfson Centre for Inherited Neuromuscular Disease^[9]. This was fluorescently labeled using a 1:200 dilution of goat anti-mouse IgG DyLight 488 conjugate. Untreated controls were stained using a 1 μg/μL solution of DAPI in 1×DPBS. Cells were imaged in 1×DPBS using an Olympus FluoView 1000 confocal microscope at 100× magnification.

r(CCUG)300 = assay: Disruption of nuclear foci by FISH in DM2 cell culture model; format: cell-based; details: C2C12 cells expressing r(CCUG)300, 72 h treatment; untreated 9±2
Description: FISH was utilized to determine the effects of clickable compounds on the formation of nuclear foci. C2C12 were sub-cultured into Mat-Tek 96-well glass bottom plates in growth medium. After the cells reached 60-70% confluency, each well was transfected with 200 ng of total plasmid using 1 μL of Lipofectamine 2000 according to the manufacturer's standard protocol. Equal amounts of plasmids expressing the DM2 mini-gene^[1] and EGFP, used as a positive marker of transfection, were used. After 5 h, the transfection cocktail was removed and replaced with differentiation medium containing the compound of interest. The cells were treated with compound for 72 h followed by FISH as previously described using 1 ng/μL DY547-2′OMe-(CAGG)5^[6]. Cells were imaged in 1×DPBS using an Olympus FluoView 1000 confocal microscope at 100× magnification.

[5] = Metabolic stability in rat microsomes; format: in vitro ADME
r(CUG)exp [6] = assay: Splicing defects in HSA LR DM1 mouse model; format: in vivo; details: intraperitoneal once per day for 7 days, vastus muscle
Description: All experimental procedures, mouse handling, and husbandry were completed in accordance with the Association for Assessment and Accreditation of Laboratory Animal Care. A mouse model for DM1^[8], HSA^LR in line 20b, was used. HSA^LR mice express human skeletal actin RNA with 250 CUG repeats in the 3′ UTR. Age- and gender-matched HSA^LR mice were injected intraperitoneally with either 100 mg/kg 2H-K4NMe in water or 13.3 mg/kg 2H-K4NMeS for treatment and 0.9% NaCl for control once per day for 7 days. Mice were sacrificed one day after the last injection, and the vastus muscle was obtained. RNA was extracted from the vastus tissue, and cDNA was synthesized as previously described.

## C[C@H](NC(=O)[C@H](C)N(C)C(=O)CN(CCN(C)C(=O)CCCOc1cccc(-c2nc3ccc(-c4nc5cc(N6CCN(C)CC6)ccc5[nH]4)cc3[nH]2)c1)C(=O)CN(CCNC(=O)CCCC[C@@H]1SC[C@@H]2NC(=O)N[C@@H]21)C(=O)CCNC(=O)CCCc1ccc(N(CCCl)CCCl)cc1)C(=O)N(C)[C@@H](C)C(=O)N(CCCCN(C)C(=O)CCCOc1cccc(-c2nc3ccc(-c4nc5cc(N6CCN(C)CC6)ccc5[nH]4)cc3[nH]2)c1)CC(N)=O [2H-K4NMeS-CA-Biotin]
r(CUG)109
  in vitro reaction with RNA targets: most effectively reacted with r(CUG)109
r(CUG)exp [1]; cells
  improvement of DM1-associated pre-mRNA splicing defects (in words): improves DM1-associated pre-mRNA splicing defects in cells
DMPK mRNA
  RNA targets pulled down (Chem-CLIP): binds to disease-causing expanded transcripts and not other RNAs with shorter (non-pathogenic length) r(CUG) repeats

## C#CC(=O)NCCCCCC(=O)N(CCN(C)C(=O)CCCOc1cccc(-c2nc3ccc(-c4nc5cc(N6CCN(C)CC6)ccc5[nH]4)cc3[nH]2)c1)CC(=O)N(C)[C@@H](C)C(=O)N(C)[C@@H](C)C(=O)N(C)[C@@H](C)C(=O)N(CCCCN(C)C(=O)CCCOc1cccc(-c2nc3ccc(-c4nc5cc(N6CCN(C)CC6)ccc5[nH]4)cc3[nH]2)c1)CC(=O)N(CCCN=[N+]=[N-])CC(N)=O [N3-2H-K4NMeS-Aak]
[2]
  effect on translation in cells without pathogenic repeats: has no effect on cells that did not have pathogenic repeats
[3]
  DMPK translational defect: improved the DMPK translational defect at nanomolar concentrations
r(CUG)exp [1]; DM1 patient-derived fibroblasts, 10 nM dosage
  improvement of DM1-associated pre-mRNA splicing defects: > 50%
r(CUG)exp [4]
  RNA nuclear foci: far fewer foci are observed

## [N-]=[N+]=NCC1OC(OC2C(N)CC(N)C(OC3OC(CN)C(O)C(O)C3O)C2O)C(O)C(N)C1O (centres unmarked) [N3-K]
r(CCUG)300
  average number of foci per cell: 6±2 foci per cell

## C[C@@H](C(=O)N(C)[C@@H](C)C(=O)N(C)[C@@H](C)C(=O)N(C)[C@@H](C)C(=O)N(CCCCN(C)C(=O)CCCOc1cccc(-c2nc3ccc(-c4nc5cc(N6CCN(C)CC6)ccc5[nH]4)cc3[nH]2)c1)CC(N)=O)N(C)C(=O)CCCOc1cccc(-c2nc3ccc(-c4nc5cc(N6CCN(C)CC6)ccc5[nH]4)cc3[nH]2)c1 [2H-K4NMeS]
[5]
  stability in microsomes (in words): stable in microsomes; also recorded: stable to rat microsomes
r(CUG)exp [6]
  potency at improving Clen1 pre-mRNA splicing defect compared to 2H-K4NMe: > 7 fold
r(CUG)exp [1]; DM1 patient-derived fibroblasts, concentrations greater than 100 nM
  rescue of pre-mRNA splicing defect: > 50%
